ChEMBL document CHEMBL3991601, “The target landscape of clinical kinase drugs” (Science, 2017)
Structures can show the parent of a compound that is named as a salt. Calls of active or inactive are those of the source.

How the values were obtained:
[1] = molecular target: T1, Calcium/calmodulin-dependent protein kinase type IV (Homo sapiens, UniProt Q16566)
T1 sequence (Q16566 whole entry): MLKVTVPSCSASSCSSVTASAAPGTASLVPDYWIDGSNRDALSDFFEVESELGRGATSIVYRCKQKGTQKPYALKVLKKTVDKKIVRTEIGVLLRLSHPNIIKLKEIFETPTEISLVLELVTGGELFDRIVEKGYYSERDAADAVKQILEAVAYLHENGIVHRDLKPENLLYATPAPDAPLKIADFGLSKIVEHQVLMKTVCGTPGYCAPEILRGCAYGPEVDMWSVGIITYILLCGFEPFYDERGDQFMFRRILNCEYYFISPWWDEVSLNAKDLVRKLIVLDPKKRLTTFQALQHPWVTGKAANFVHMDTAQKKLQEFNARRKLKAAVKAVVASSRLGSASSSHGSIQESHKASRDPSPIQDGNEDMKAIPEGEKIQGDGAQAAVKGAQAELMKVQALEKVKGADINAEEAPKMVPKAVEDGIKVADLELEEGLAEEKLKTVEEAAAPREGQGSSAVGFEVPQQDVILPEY

[2] = molecular target: T2, Serine/threonine-protein kinase Nek1 (Homo sapiens, UniProt Q96PY6)
T2 sequence (Q96PY6 whole entry): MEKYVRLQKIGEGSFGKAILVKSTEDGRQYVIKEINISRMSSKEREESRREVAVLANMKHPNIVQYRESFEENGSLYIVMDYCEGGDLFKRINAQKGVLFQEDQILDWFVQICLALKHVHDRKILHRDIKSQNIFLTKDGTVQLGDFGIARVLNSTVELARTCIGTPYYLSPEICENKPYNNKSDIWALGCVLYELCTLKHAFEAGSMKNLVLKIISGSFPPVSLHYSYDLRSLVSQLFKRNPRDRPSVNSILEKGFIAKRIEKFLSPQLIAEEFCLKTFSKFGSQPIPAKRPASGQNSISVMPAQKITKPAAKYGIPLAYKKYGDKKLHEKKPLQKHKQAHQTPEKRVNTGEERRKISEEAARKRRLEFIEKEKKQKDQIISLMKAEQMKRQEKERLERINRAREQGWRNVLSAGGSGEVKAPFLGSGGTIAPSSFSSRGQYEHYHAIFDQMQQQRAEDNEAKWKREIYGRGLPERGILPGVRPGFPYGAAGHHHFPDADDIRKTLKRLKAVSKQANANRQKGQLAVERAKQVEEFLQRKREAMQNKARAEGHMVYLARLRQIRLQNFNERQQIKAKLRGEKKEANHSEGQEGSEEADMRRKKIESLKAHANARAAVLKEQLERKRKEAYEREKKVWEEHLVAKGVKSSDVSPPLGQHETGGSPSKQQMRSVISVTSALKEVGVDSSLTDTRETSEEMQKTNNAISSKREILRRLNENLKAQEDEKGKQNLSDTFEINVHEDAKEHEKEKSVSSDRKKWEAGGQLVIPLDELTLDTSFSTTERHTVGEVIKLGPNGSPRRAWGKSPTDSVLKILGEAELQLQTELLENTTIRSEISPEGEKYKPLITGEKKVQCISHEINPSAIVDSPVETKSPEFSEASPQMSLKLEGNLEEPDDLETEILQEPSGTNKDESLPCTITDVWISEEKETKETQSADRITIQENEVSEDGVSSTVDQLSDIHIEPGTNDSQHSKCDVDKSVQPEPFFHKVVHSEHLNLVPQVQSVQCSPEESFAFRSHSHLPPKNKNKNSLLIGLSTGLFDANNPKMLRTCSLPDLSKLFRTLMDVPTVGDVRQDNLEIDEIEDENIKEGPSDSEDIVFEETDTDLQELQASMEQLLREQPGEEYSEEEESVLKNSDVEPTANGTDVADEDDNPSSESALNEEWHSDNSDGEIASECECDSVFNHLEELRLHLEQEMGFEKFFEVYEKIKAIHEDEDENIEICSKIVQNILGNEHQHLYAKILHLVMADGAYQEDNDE

[3] = molecular target: Structural maintenance of chromosomes protein 2 (Homo sapiens, UniProt O95347)
Sequence of Structural maintenance of chromosomes protein 2 (O95347 whole entry): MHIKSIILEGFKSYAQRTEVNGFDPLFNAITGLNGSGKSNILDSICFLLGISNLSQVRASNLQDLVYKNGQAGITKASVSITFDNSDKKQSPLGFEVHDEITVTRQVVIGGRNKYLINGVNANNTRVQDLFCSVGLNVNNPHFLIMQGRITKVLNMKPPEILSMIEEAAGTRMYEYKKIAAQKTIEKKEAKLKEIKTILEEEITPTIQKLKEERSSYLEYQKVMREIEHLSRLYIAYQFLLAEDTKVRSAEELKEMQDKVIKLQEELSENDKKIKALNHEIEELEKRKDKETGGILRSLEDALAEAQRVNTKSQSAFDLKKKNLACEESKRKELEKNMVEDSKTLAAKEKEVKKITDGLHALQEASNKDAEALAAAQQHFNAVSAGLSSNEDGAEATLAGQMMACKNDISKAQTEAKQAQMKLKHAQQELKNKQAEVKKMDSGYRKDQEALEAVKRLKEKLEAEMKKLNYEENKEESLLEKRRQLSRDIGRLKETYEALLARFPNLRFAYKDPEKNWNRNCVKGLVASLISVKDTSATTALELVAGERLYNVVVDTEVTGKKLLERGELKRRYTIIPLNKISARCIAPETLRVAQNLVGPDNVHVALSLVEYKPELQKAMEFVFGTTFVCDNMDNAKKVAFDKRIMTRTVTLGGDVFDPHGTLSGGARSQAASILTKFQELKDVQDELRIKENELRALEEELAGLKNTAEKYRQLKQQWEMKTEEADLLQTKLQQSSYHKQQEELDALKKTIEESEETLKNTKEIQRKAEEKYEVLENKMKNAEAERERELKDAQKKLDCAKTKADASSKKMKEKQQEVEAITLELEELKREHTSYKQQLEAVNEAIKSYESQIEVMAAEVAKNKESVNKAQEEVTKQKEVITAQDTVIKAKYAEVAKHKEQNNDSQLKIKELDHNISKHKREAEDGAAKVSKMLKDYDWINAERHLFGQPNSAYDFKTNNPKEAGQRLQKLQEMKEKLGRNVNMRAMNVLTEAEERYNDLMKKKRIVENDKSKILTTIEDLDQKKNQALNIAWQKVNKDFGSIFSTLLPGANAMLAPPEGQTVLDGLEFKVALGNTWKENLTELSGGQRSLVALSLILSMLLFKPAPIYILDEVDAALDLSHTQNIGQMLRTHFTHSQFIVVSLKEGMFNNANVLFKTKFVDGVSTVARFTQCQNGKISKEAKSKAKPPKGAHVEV

[4] = molecular target: T3, Serine/threonine-protein kinase TAO2 (Homo sapiens, UniProt Q9UL54)
T3 sequence (Q9UL54 whole entry): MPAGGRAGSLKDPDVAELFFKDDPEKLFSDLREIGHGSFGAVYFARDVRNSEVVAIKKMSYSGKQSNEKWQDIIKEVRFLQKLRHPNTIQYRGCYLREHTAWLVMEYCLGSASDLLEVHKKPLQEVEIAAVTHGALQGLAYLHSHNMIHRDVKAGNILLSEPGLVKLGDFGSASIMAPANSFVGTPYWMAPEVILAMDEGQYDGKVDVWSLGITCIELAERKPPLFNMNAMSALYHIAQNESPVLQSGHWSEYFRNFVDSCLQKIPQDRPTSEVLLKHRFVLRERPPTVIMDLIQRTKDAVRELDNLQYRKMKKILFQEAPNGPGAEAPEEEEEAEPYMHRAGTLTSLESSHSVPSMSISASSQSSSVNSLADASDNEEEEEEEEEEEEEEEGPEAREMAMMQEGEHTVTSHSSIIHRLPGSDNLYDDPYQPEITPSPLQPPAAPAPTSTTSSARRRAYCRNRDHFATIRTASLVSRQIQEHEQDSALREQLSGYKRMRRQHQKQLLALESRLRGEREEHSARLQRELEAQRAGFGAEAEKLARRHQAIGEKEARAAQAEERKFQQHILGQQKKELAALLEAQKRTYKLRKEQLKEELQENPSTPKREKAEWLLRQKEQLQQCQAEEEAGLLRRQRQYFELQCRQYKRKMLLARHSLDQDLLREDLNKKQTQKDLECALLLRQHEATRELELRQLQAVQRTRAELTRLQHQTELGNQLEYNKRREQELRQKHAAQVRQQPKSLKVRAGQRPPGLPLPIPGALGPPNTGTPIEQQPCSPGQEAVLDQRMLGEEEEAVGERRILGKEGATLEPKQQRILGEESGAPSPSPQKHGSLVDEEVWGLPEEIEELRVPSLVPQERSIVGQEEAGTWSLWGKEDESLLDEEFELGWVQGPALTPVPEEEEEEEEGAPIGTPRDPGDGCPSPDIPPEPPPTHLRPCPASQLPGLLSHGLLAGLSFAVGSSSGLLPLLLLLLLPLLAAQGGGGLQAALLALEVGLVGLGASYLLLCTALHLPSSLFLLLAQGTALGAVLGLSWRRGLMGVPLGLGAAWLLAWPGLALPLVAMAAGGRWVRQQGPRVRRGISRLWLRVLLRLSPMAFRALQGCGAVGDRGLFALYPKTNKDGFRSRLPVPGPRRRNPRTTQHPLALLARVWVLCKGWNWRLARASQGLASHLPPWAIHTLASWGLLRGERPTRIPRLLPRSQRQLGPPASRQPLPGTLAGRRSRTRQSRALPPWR
Further: in the data inactive means no Kd found up to 30 µM.

Kd [1]	Kd [2]	Kd [3]	Kd [4]	SMILES
> 30 µM (inactive)	> 30 µM (inactive)	> 30 µM (inactive)	> 30 µM (inactive)	COc1cc2ncnc(Oc3cccc(NC(=O)Nc4cc(C(C)(C)C(F)(F)F)on4)c3)c2cc1OC [CEP-32496]
0.635 µM (active)	> 30 µM (inactive)	> 30 µM (inactive)	> 30 µM (inactive)	Cc1cc(Nc2ncc(Cl)c(Nc3ccccc3S(=O)(=O)C(C)C)n2)c(OC(C)C)cc1C1CCNCC1 [CERITINIB]
> 30 µM (inactive)	> 30 µM (inactive)	> 30 µM (inactive)	> 30 µM (inactive)	COc1c(OCCCN2CCOCC2)ccc2c1N=C(NC(=O)c1cnc(N)nc1)N1CCN=C21 [COPANLISIB]
> 30 µM (inactive)	> 30 µM (inactive)	> 30 µM (inactive)	> 30 µM (inactive)	COCC(=O)NC/C=C/c1ccc2ncnc(Nc3ccc(Oc4ccc(C)nc4)c(C)c3)c2c1 [CP-724714]
> 30 µM (inactive)	> 30 µM (inactive)	> 30 µM (inactive)	> 30 µM (inactive)	C#Cc1cccc(Nc2ncnc3cc(OC)c(OCCCCCCC(=O)NO)cc23)c1 [CUDC-101]
> 30 µM (inactive)	> 30 µM (inactive)	> 30 µM (inactive)	2.22 µM (active)	CCS(=O)(=O)N1CCN(c2ccc(Nc3ncc(C(N)=O)c(NC4CC4)n3)cc2)CC1 [Cerdulatinib Hydrochloride]
> 30 µM (inactive)	> 30 µM (inactive)	> 30 µM (inactive)	> 30 µM (inactive)	Cc1cccc(-c2nn3c(c2-c2ccnc4ccc(C(N)=O)cc24)CCC3)n1 [GALUNISERTIB]
> 30 µM (inactive)	> 30 µM (inactive)	> 30 µM (inactive)	> 30 µM (inactive)	COc1ccc(S(=O)(=O)N(C(C)=O)c2ccccc2/C=C/c2cc[n+]([O-])cc2)cc1 [HMN-214]
> 30 µM (inactive)	> 30 µM (inactive)	> 30 µM (inactive)	> 30 µM (inactive)	CNC(=O)c1cccc2cc(Oc3ccnc4cc(OCC5(N)CC5)c(OC)cc34)ccc12 [LUCITANIB]
> 30 µM (inactive)	> 30 µM (inactive)	> 30 µM (inactive)	5.25 µM (active)	CNC(=O)c1nn(C)c2c1C(C)(C)Cc1cnc(Nc3ccc(N4CCN(C)CC4)cc3)nc1-2 [MILCICLIB]
> 30 µM (inactive)	> 30 µM (inactive)	> 30 µM (inactive)	> 30 µM (inactive)	NC1(c2ccc(-c3nc4ccn5c(=O)[nH]nc5c4cc3-c3ccccc3)cc2)CCC1 [MK-2206]
> 30 µM (inactive)	> 30 µM (inactive)	> 30 µM (inactive)	> 30 µM (inactive)	CN(C[C@@H]1COCCO1)S(=O)(=O)Nc1ccc2ccc3ncc(-c4cnn(C)c4)cc3c(=O)c2c1 [MK-2461]
> 30 µM (inactive)	> 30 µM (inactive)	> 30 µM (inactive)	> 30 µM (inactive)	Cn1cc(-c2cnc3ccc4ccc(CS(=O)(=O)NCc5ccccn5)cc4c(=O)c3c2)cn1 [MK-8033]
> 30 µM (inactive)	> 30 µM (inactive)	> 30 µM (inactive)	> 30 µM (inactive)	FC(F)(F)c1ccc(/C=C/c2nc(COc3ccc(CCCCn4ccnn4)cc3)co2)cc1 [MUBRITINIB]
> 30 µM (inactive)	> 30 µM (inactive)	> 30 µM (inactive)	> 30 µM (inactive)	COc1ncc(-c2ccc3nccc(-c4ccnnc4)c3c2)cc1NS(=O)(=O)c1ccc(F)cc1F [OMIPALISIB]
> 30 µM (inactive)	> 30 µM (inactive)	> 30 µM (inactive)	> 30 µM (inactive)	Cc1[nH]c(/C=C2\C(=O)Nc3ccccc32)c(C)c1CCC(=O)O [ORANTINIB]
> 30 µM (inactive)	> 30 µM (inactive)	> 30 µM (inactive)	> 30 µM (inactive)	NC(=O)c1c(OCc2c(F)cc(Br)cc2F)nsc1NC(=O)NCCCCN1CCCC1 [OSI-632]
0.408 µM (active)	> 30 µM (inactive)	> 30 µM (inactive)	> 30 µM (inactive)	Cc1nc(Nc2n[nH]c3c2CN(C(=O)N[C@H](CN(C)C)c2ccccc2)C3(C)C)c2sccc2n1 [PF-03758309]
> 30 µM (inactive)	> 30 µM (inactive)	> 30 µM (inactive)	2.05 µM (active)	CC(=O)NCC(=O)N1[C@@H]2CC[C@H]1c1ccc(Nc3ncc(C(F)(F)F)c(NC4CCC4)n3)cc12 [PF-03814735]
> 30 µM (inactive)	> 30 µM (inactive)	> 30 µM (inactive)	> 30 µM (inactive)	Cc1cnc(NC(=O)Nc2cc(Br)c(C)cc2OC[C@@H]2CNCCO2)cn1 [RABUSERTIB]

SMILES	Kd [1]	Kd [2]	Kd [3]	Kd [4]
O=C(Nc1nc2cccc(-c3ccc(CN4CCS(=O)(=O)CC4)cc3)n2n1)C1CC1 [FILGOTINIB]	> 30 µM (inactive)	> 30 µM (inactive)	> 30 µM (inactive)	> 30 µM (inactive)
O=C(Nc1cc(C(F)(F)F)cc(C(F)(F)F)c1)c1cc(Cl)ccc1O [IMD-0354]	> 30 µM (inactive)	> 30 µM (inactive)	> 30 µM (inactive)	> 30 µM (inactive)
CCCCCCCCCCCCCCCCCCOP(=O)([O-])OC1CC[N+](C)(C)CC1 [PERIFOSINE]	> 30 µM (inactive)	> 30 µM (inactive)	> 30 µM (inactive)	> 30 µM (inactive)
CNC(=O)c1cc(Oc2ccc(NC(=O)Nc3cc(C(C)(C)C)nn3-c3ccc4ncccc4c3)c(F)c2)ccn1 [REBASTINIB]	> 30 µM (inactive)	> 30 µM (inactive)	> 30 µM (inactive)	> 30 µM (inactive)
